Measurements from patent US20250263404A1, “AMINOPYRIDINES AS ACTIVATORS OF PI3 KINASE” (UCL Business Ltd, priority 2021, published 2025).

Experiments:
[1] = target: PI3Kα (Homo sapiens, UniProt P42336); assay: ADP-Glo in vitro lipid kinase assay, PI3Kα; type: biochemical; parameters: Full-length p110α was expressed in a complex with full-length p85α (for biochemistry and HDX-MS); 6xHis followed by TEV protease site (N); made in house; host or cells: Spodoptera frugiperda Sf9 (baculovirus co-infection; plasmids OP831 and OP809)
Description: The effect of 1938 on the in vitro lipid kinase activity of p85α in complex with p110α, p110β or p110δ (further referred to as PI3Kα, PI3Kβ and PI3Kδ) was tested. As a positive control, a bis-phosphorylated phosphopeptide (a PDGF-receptor-derived peptide phosphorylated on Tyr-740 and Tyr-751, hereafter referred to as pY peptide) was used to mimic engagement of the p85α SH2 domains with tyrosine-phosphorylated peptides in membrane-bound receptors and adaptor proteins, known to activate the PI3Kα complex.
(§1) Kinase reactions were performed with ADP-Glo kinase assay kit (Promega Corporation). The enzyme, substrate and compounds were diluted in reaction buffer (20 mM HEPES, 50 mM NaCl, 50 mM KCl, 3 mM MgCl2, 1 mM EGTA, 1 mM TCEP, pH 7.4). Final concentrations of PI3Kα and PI3Kδ used were 25 nM and 50 nM for PI3Kβ. Liposomes (5% brain PI(4,5)P2, 20% brain phosphatidylserine, 45% brain phosphatidylethanolamine, 15% brain phosphatidylcholine, 10% cholesterol, 5% sphingomyelin (Avanti Polar Lipids)) were used at a final concentration of 1 mg/ml.
For compound profiling, the reaction mixture contained 2 μl PI3K enzyme, 2 μl compound and/or pY and 2 μl of liposome substrate mixed with ATP. ATP was used at a final concentration of 500 μM for PI3Kα and PI3Kβ and at 200 μM for PI3Kδ, unless otherwise stated. The final DMSO concentration in the assay was 1%. The experiments were performed at room temperature for 3 h using 384 white-polystyrene plates (Corning #3824) before addition of 6 μl of ADP-Glo R1 to terminate the reaction. The plate was incubated for 45 min, followed by addition of 12 μl of ADP-Glo R2 and incubated further for 60 min in the dark. Luminescence was read using a Sense (Hidex) plate reader. […] All analyses were performed using GraphPad Prism 7.
For characterisation of the effects of 1938 on in vitro PI3K enzymology, all reactions were performed at room temperature with 384 white-polystyrene plates (Corning #3574). The final DMSO concentration in the assay was between 0.5%-1.8%. The reaction mixture contained 2 μl PI3K enzyme, 2 μl compound and/or pY and 2 μl of liposome substrate mixed with ATP. ATP was used at a final concentration of 200 μM, unless otherwise stated. The enzyme and compounds were pre-incubated for 10 min prior to addition of substrate. The reaction was allowed to proceed for 45 min at room temperature, before addition of 6 μl of ADP-Glo R1 to terminate the reaction. The plate was incubated for 60 min, followed by addition of 12 μl of ADP-Glo R2 and incubated further for 60 min in the dark. For enzyme kinetic calculations, data was expressed as velocity (pmol of ADP generated/sec). ADP-ATP standard curves were performed according to the manufacturer's instructions, and all analyses were performed using GraphPad Prism 8.

[2] = target: T1, N345K mutant of p110α (Homo sapiens, UniProt P42336, N345K); assay: ADP-Glo kinase assay, oncogenic mutant N345K; type: biochemical; details: compared with pY
T1 construct: Full-length p110α was expressed in a complex with full-length p85α (for biochemistry and HDX-MS); 6xHis followed by TEV protease site (N); made in house; host or cells: Spodoptera frugiperda Sf9 (plasmid OP661)
Description: Co-stimulation of 1938 with pY led to an additive activatory effect for G106V, but not for the N345K and E545K mutants (FIG. 1f/FIG. 22f).
as §1, with “mg/ml. The pY sequence is ESDGG(pY)[…](pY)[…].” for “mg/ml.”
For characterisation of the effects of 1938 on in vitro PI3K enzymology, all reactions were performed at room temperature with 384 white-polystyrene plates (Corning #3574). The final DMSO concentration in the assay was between 0.5%-1.8%. The reaction mixture contained 2 μl PI3K enzyme, 2 μl compound and/or pY and 2 μl of liposome substrate mixed with ATP. ATP was used at a final concentration of 200 μM, unless otherwise stated. The enzyme and compounds were pre-incubated for 10 min prior to addition of substrate. […] For enzyme kinetic calculations, data was expressed as velocity (pmol of ADP generated/sec). […]

PI3Kα, sequence (P42336 whole entry, the tested form may be a part): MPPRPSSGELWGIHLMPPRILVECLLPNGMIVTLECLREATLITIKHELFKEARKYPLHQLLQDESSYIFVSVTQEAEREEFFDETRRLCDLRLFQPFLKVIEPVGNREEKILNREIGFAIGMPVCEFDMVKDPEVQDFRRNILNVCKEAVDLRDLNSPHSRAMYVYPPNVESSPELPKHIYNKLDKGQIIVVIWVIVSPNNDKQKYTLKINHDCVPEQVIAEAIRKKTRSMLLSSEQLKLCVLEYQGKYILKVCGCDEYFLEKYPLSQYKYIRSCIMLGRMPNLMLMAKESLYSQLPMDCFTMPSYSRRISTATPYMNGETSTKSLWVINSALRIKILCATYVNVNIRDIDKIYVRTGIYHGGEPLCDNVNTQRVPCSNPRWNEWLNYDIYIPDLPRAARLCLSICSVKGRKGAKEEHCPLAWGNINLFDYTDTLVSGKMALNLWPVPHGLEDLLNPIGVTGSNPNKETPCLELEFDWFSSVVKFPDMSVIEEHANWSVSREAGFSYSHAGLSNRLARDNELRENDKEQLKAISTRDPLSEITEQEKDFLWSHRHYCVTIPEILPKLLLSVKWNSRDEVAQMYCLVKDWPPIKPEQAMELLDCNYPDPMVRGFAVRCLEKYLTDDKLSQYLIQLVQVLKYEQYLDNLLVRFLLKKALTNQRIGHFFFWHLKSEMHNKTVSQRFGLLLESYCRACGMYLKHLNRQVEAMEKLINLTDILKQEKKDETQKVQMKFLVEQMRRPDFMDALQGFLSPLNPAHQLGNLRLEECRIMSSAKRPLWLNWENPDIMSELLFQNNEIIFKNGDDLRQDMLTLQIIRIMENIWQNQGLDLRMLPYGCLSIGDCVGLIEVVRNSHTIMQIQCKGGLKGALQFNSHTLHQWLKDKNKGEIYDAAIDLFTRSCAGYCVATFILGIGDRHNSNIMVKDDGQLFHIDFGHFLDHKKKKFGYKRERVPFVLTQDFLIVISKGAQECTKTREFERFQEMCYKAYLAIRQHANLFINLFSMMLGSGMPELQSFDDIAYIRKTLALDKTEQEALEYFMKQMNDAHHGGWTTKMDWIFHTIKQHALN
PI3Kα, sequence (P27986 whole entry partner, the tested form may be a part): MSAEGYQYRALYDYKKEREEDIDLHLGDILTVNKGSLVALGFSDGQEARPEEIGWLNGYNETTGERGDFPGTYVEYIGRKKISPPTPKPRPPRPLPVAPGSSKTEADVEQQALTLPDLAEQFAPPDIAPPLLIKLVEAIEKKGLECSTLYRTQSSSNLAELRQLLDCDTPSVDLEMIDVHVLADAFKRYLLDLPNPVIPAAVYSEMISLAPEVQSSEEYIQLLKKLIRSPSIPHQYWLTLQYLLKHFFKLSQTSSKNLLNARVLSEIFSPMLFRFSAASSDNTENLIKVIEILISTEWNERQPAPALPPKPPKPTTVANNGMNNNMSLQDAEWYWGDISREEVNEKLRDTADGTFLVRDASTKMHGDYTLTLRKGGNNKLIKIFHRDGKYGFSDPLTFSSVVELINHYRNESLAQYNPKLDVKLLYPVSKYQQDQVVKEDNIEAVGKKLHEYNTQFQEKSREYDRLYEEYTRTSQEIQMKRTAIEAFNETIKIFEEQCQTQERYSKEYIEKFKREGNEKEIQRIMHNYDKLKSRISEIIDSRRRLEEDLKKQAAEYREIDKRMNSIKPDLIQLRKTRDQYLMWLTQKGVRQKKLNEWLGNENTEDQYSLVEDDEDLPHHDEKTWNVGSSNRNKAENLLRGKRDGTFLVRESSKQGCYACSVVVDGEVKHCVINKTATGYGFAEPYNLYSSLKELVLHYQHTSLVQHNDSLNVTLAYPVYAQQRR
T1 sequence (P42336 whole entry N345K): as the sequence (P42336 whole entry, the tested form may be a part) above, with N345K counted along it
T1 sequence (P27986 whole entry partner): as the sequence (P27986 whole entry partner, the tested form may be a part) above

PI3Kα activation in combination with a saturating concentration of pY ([1]; 1938 plus pY): synergistic PI3Kα activation
maximum rate of reaction (Vmax) of PI3Kα ([1]; ATP titration): increased
turnover number (Kcat) of PI3Kα ([1]; ATP titration): increased
effect on in vitro lipid kinase activity of PI3Kα ([1]; concentration-dependent): activate PI3Kα
EC50 ([1]; in vitro PI3Kα activation): 58 ± 28 µM
Max. activity relative to 1938 ([1]; relative to 1938): 100%
Max. activity relative to pY ctrl ([1]; relative to pY control): 397 ± 60%
Structure (SMILES): CCN1CCN(c2ccc(Nc3cc(Nc4cccc5c4N(C(C)=O)CC5)ccn3)cc2)CC1 [Example 1938]
activation of N345K mutant [2]: levels comparable with stimulation with pY
